The SangsterLogP compilation

assay: from Savola, J.; Ruskoaho, H.; Salonen, J.; Puurunen, J.; Karjalainen, A.; Kurkela, K.; Karki, N. (1988). Cardiovascular and sedative alpha-adrenoceptor effects of detomidine-like arylalkylimidazoles and …; settings: pH 7.4

Row | Structure (SMILES) | logD
1 | Cc1cccc(C)c1CCCCc1c[nH]cn1 | 3.3
2 | Cc1ccccc1Cc1c[nH]cn1 | 2.13
3 | Cc1cccc(C)c1-c1c[nH]cn1 | 2.38
4 | Cc1ccc(Cc2c[nH]cn2)cc1C | 2.54
5 | Cc1cccc(C)c1CCn1ccnc1 | 2.51
6 | Cc1cccc(C)c1CCc1c[nH]cn1 | 2.73
7 | Cc1cccc(C)c1/C=C/c1c[nH]cn1 | 3.35
8 | Cc1cccc(C)c1CCCc1c[nH]cn1 | 2.87
9 | Cc1cccc(C)c1Cc1ccccn1 | 3.48
10 | Cc1ccc(C)c(Cc2c[nH]cn2)c1 | 2.54
11 | Cc1ccc(Cc2c[nH]cn2)c(C)c1 | 2.52
12 | Cc1cccc(Cc2c[nH]cn2)c1C | 2.5
13 | Cc1cccc(C)c1CCc1ncc[nH]1 | 2.2
14 | Cc1cc(C)cc(Cc2c[nH]cn2)c1 | 2.34
15 | Cc1cccc(C)c1Cc1cnc[nH]1 | 2.54
16 | Cc1cccc(Cc2c[nH]cn2)c1 | 2.21
